Calls of active or inactive are those of the source. The rule behind the calls is not given here.
Legend:
PC-3 [1] = assay: Cytotoxicity against human PC3 cells assessed as reduction in cell viability measured after 72 hrs by MTT assay; format: functional, cell-based; conditions: PC-3, 72 h
B16-F10 = assay: Cytotoxicity against mouse B16-F10 cells assessed as reduction in cell viability measured after 72 hrs by MTT assay; format: functional, cell-based; conditions: B16-F10, 72 h
Quadruplex DNA [2] = assay: Binding affinity to c-Myc G-quadruplex DNA (unknown origin) assessed as dissociation constant incubated for 5 mins by UV- vis spectrophotometric analysis; format: nucleic-acid assay
Quadruplex DNA [3] = assay: Binding affinity to Tel Q G-quadruplex DNA (unknown origin) assessed as dissociation constant incubated for 5 mins by UV- vis spectrophotometric analysis; format: nucleic-acid assay
PC-3 [4] = assay: Induction of cell cycle arrest in human PC3 cells assessed as accumulation at Sub G1 phase at 50 uM after 48 hrs by propidium iodide staining based flow cytometry (reference value: 0.1%); format: functional
PC-3 [5] = assay: Induction of cell cycle arrest in human PC3 cells assessed as accumulation at S phase at 50 uM after 48 hrs by propidium iodide staining based flow cytometry (reference value: 1.8%); format: functional
PC-3 [6] = assay: Induction of cell cycle arrest in human PC3 cells assessed as accumulation at G2/M phase at 50 uM after 48 hrs by propidium iodide staining based flow cytometry (reference value: 1.4%); format: functional
PC-3 [7] = assay: Induction of cell cycle arrest in human PC3 cells assessed as accumulation at Sub G1 phase at 55 uM after 48 hrs by propidium iodide staining based flow cytometry (reference value: 0.1%); format: functional
PC-3 [8] = assay: Induction of cell cycle arrest in human PC3 cells assessed as accumulation at G1 phase at 55 uM after 48 hrs by propidium iodide staining based flow cytometry (reference value: 5%); format: functional
PC-3 [9] = assay: Induction of cell cycle arrest in human PC3 cells assessed as accumulation at G2/M phase at 55 uM after 48 hrs by propidium iodide staining based flow cytometry (reference value: 1.4%); format: functional
PC-3 [10] = assay: Induction of apoptosis in human PC-3 cells assessed as viable cells at 50 uM after 48 hrs by Annexin V based flow cytometric analysis (reference value: 89.57%); format: functional; conditions: read-out: Activity
PC-3 [11] = assay: Induction of apoptosis in human PC-3 cells assessed as necrotic cells at 50 uM after 48 hrs by Annexin V based flow cytometric analysis (reference value: 0.79%); format: functional
PC-3 [12] = assay: Induction of apoptosis in human PC-3 cells assessed as late apoptic cells at 50 uM after 48 hrs by Annexin V based flow cytometric analysis (reference value: 9.24%); format: functional
PC-3 [13] = assay: Induction of apoptosis in human PC-3 cells assessed as early apoptic cells at 50 uM after 48 hrs by Annexin V based flow cytometric analysis (reference value: 0.40%); format: functional
PC-3 [14] = assay: Induction of apoptosis in human PC-3 cells assessed as apoptotic cells at 50 uM incubated for 48 hrs by AnnexinV based flow cytometric analysis (reference value: 10.43%); format: functional
PC-3 [15] = assay: Induction of apoptosis in human PC-3 cells assessed as viable cells at 55 uM after 48 hrs by Annexin V based flow cytometric analysis (reference value: 89.57%); format: functional; conditions: read-out: Activity
PC-3 [16] = assay: Induction of apoptosis in human PC-3 cells assessed as necrotic cells at 55 uM after 48 hrs by Annexin V based flow cytometric analysis (reference value: 0.79%); format: functional
PC-3 [17] = assay: Induction of apoptosis in human PC-3 cells assessed as late apoptic cells at 55 uM after 48 hrs by Annexin V based flow cytometric analysis (reference value: 9.24%); format: functional
PC-3 [18] = assay: Induction of apoptosis in human PC-3 cells assessed as apoptotic cells at 55 uM incubated for 48 hrs by AnnexinV based flow cytometric analysis (reference value: 10.43%); format: functional
[19] = Induction of apoptosis in CHO-K1 cells assessed as viable cells at 60 uM after 48 hrs by Annexin V based flow cytometric analysis (reference value: 93.71%); format: cell-based, Cricetulus griseus; conditions: chinese hamster, read-out: Activity
CHO-K1 [20] = assay: Induction of apoptosis in CHO-K1 cells assessed as necrotic cells at 60 uM after 48 hrs by Annexin V based flow cytometric analysis (reference value: 0.70%); format: cell-based, Cricetulus griseus; conditions: chinese hamster, cho-k1, 48 h
CHO-K1 [21] = assay: Induction of apoptosis in CHO-K1 cells assessed as apoptic cells at 60 uM after 48 hrs by Annexin V based flow cytometric analysis (reference value: 6.29%); format: cell-based, Cricetulus griseus; conditions: chinese hamster, cho-k1, 48 h
[22] = Induction of apoptosis in CHO-K1 cells assessed as viable cells at 65 uM after 48 hrs by Annexin V based flow cytometric analysis (reference value: 93.71%); format: cell-based, Cricetulus griseus; conditions: chinese hamster, read-out: Activity
CHO-K1 [23] = assay: Induction of apoptosis in CHO-K1 cells assessed as early apoptic cells at 65 uM after 48 hrs by Annexin V based flow cytometric analysis (reference value: 4.58%); format: cell-based, Cricetulus griseus; conditions: chinese hamster, cho-k1, 48 h
CHO-K1 [24] = assay: Induction of apoptosis in CHO-K1 cells assessed as late apoptic cells at 65 uM after 48 hrs by Annexin V based flow cytometric analysis (reference value: 1.01%); format: cell-based, Cricetulus griseus; conditions: chinese hamster, cho-k1, 48 h
Quadruplex DNA [25] = assay: Binding affinity to Tel Q G-quadruplex DNA (unknown origin) assessed as hypsochromic shift at 8.5 uM incubated for 5 mins by UV- vis spectrophotometric analysis; format: nucleic-acid assay
Quadruplex DNA [26] = assay: Binding affinity to Tel Q G-quadruplex DNA (unknown origin) assessed as hyperchromicity at 8.5 uM incubated for 5 mins by UV- vis spectrophotometric analysis; format: nucleic-acid assay
Quadruplex DNA [27] = assay: Binding affinity to c-Myc G-quadruplex DNA (unknown origin) assessed as hyperchromicity at 8.5 uM incubated for 5 mins by UV- vis spectrophotometric analysis; format: nucleic-acid assay
dsDNA [28] = assay: Binding affinity to double strand DNA (unknown origin) assessed as hyperchromicity at 8.5 uM incubated for 5 mins by UV- vis spectrophotometric analysis; format: nucleic-acid assay
Quadruplex DNA [29] = assay: Stabilization of c-Myc G-quadruplex DNA (unknown origin) assessed as change in melting temperature at 8.5 uM incubated for 5 mins by UV-visible thermal denaturation study; format: nucleic-acid assay
dsDNA [30] = assay: Stabilization of dsDNA (unknown origin) assessed as change in melting temperature at 8.5 uM incubated for 5 mins by UV-visible thermal denaturation study; format: nucleic-acid assay
Quadruplex DNA [31] = assay: Stabilization of Tel Q G-quadruplex DNA (unknown origin) assessed as increase in life time of DNA and compound complex at 8.5 uM incubated for 5 mins by fluorescence lifetime study; format: nucleic-acid assay
Quadruplex DNA [32] = assay: Binding affinity to c-Myc G-quadruplex DNA (unknown origin) assessed as increase in intensity of positive and negative peaks at 10 to 40 uM by circular dichroism spectra; format: nucleic-acid assay; conditions: dose 10-40 µM
dsDNA [33] = assay: Binding affinity to double strand DNA (unknown origin) assessed as increase in intensity of positive and negative peaks at 10 to 40 uM by circular dichroism spectra; format: nucleic-acid assay; conditions: dose 10-40 µM
Quadruplex DNA [34] = assay: Binding affinity to Tel Q G-quadruplex DNA (unknown origin) assessed as increase in viscosity at 15 uM by EtBr/Hoechst 33342 method; format: nucleic-acid assay
Quadruplex DNA [35] = assay: Binding affinity to c-Myc G-quadruplex DNA (unknown origin) assessed as increase in viscosity at 15 uM by EtBr/Hoechst 33342 method; format: nucleic-acid assay
dsDNA [36] = assay: Binding affinity to double strand DNA (unknown origin) assessed as increase in viscosity at 15 uM by EtBr/Hoechst 33342 method; format: nucleic-acid assay

Kd (Quadruplex DNA [2]): 113 µM | Kd (Quadruplex DNA [3]): 72.3 µM | Activity (Quadruplex DNA [25]): 2.5 nm | Activity (Quadruplex DNA [26]): 37.1% | Activity (Quadruplex DNA [27]): 27.3% | Activity (dsDNA [28]): 13.1% | ΔTm (Quadruplex DNA [29]): 5 °C | ΔTm (dsDNA [30]): 0 °C | Activity (Quadruplex DNA [31]): Active | Activity (Quadruplex DNA [32]): Active | Activity (dsDNA [33]): inactive | Activity (Quadruplex DNA [34]): Active | Activity (Quadruplex DNA [35]): Active | Activity (dsDNA [36]): inactive
Structure (SMILES): O=C(Cn1cc(CSc2nc3cc(OC(F)F)ccc3[nH]2)nn1)NC1CCCCC1
IC50 (PC-3 [1]): 53.3 µM | IC50 (B16-F10): 84.7 µM | Activity (PC-3 [4]): 0.1% | Activity (PC-3 [5]): 5.3% | Activity (PC-3 [6]): 9.6% | Activity (PC-3 [7]): 0.8% | Activity (PC-3 [8]): 18.2% | Activity (PC-3 [9]): 11.2% | viability at 50 µM (PC-3 [10]): 87.3% | Activity (PC-3 [11]): 2.57% | Activity (PC-3 [12]): 9.39% | Activity (PC-3 [13]): 0.76% | Activity (PC-3 [14]): 12.72% | viability at 55 µM (PC-3 [15]): 81.4% | Activity (PC-3 [16]): 2.64% | Activity (PC-3 [17]): 13.75% | Activity (PC-3 [18]): 18.62% | viability at 48 h, 60 µM [19]: 86% | Activity (CHO-K1 [20]): 1.97% | Activity (CHO-K1 [21]): 13.98% | viability at 48 h, 65 µM [22]: 84.4% | Activity (CHO-K1 [23]): 11.75% | Activity (CHO-K1 [24]): 2.16%

From ChEMBL document CHEMBL4732026, “Benzimidazole-1,2,3-triazole hybrid molecules: synthesis and study of their interaction with G-quadruplex DNA” (RSC Med Chem, 2021)
